{
  "source": "patent US20040167220A1",
  "about": "“Environmentally safe fungicide and bactericide formulations” (priority 2003, published 2004)",
  "key": {"Botrytis cinerea [1]": {"system": "Botrytis cinerea", "conditions": "preservative used without the acidic pH of the invention"}, "Fusarium nygamai [2]": {"system": "Fusarium nygamai", "conditions": "preservative used without the acidic pH of the invention"}, "Alternaria solani [3]": {"system": "Alternaria solani", "conditions": "preservative used without the acidic pH of the invention"}, "Rhytisma acerinum": {"system": "Rhytisma acerinum", "assay": "In vitro PDA plate test against fungal plant pathogens; further: key: 0 - no activity, mycelial growth occurred; Fs - Fungistatic activity; Fd - Fungicidal effect - mycelial growth was completely inhibited", "assay_type": "cell-based"}, "Alternaria solani [4]": {"system": "Alternaria solani", "assay": "In vitro PDA plate test against fungal plant pathogens", "assay_type": "cell-based"}, "[5]": {"system": "Colletotrichum graminicola", "assay": "In vitro PDA plate test against fungal plant pathogens", "assay_type": "cell-based"}, "Fusarium proliferatum": {"system": "Fusarium proliferatum", "assay": "In vitro PDA plate test against fungal plant pathogens", "assay_type": "cell-based"}, "Botrytis cinerea [6]": {"system": "Botrytis cinerea", "assay": "In vitro PDA plate test against fungal plant pathogens", "assay_type": "cell-based"}, "Fusarium nygamai [7]": {"system": "Fusarium nygamai", "assay": "In vitro PDA plate test against fungal plant pathogens", "assay_type": "cell-based", "conditions": "sodium benzoate 5.0 mM, pH adjusted with citric acid"}, "Sclerotinia sclerotiorum": {"system": "Sclerotinia sclerotiorum", "assay": "In vitro PDA plate test against fungal plant pathogens", "assay_type": "cell-based", "conditions": "sodium benzoate 5.0 mM, pH adjusted with citric acid"}, "Sclerotinia homoeocarpa": {"system": "Sclerotinia homoeocarpa", "assay": "In vitro PDA plate test against fungal plant pathogens", "assay_type": "cell-based", "conditions": "sodium benzoate 5.0 mM, pH adjusted with citric acid"}, "Fusarium moniliforme": {"system": "Fusarium moniliforme", "assay": "In vitro PDA plate test against fungal plant pathogens", "assay_type": "cell-based", "conditions": "sodium benzoate 5.0 mM, pH adjusted with citric acid"}, "[8]": {"conditions": "potassium sorbate/citric acid formulations, with or without surfactants, in PDA"}, "[9]": {"conditions": "sodium benzoate 5.0 mM, pH adjusted with citric acid, in PDA"}, "[10]": {"conditions": "potassium sorbate and citric acid in PDA, examined after 2, 4, 6 days, viability on untreated PDA"}},
  "data": [
    {"smiles": "C/C=C/C=C/C(=O)[O-].[K+]", "note": "[potassium sorbate]", "values": [
      {"measurement": "pathogens killed", "setting": "plant pathogens; 1 mM (0.0015%), pH 4.1, surfactants added", "value": "7 out of 8"},
      {"measurement": "activity against the broad range of plant pathogens tested", "setting": "plant pathogens; 5 mM (0.075% solution), pH 4.1", "value": "cidal activity"},
      {"measurement": "activity against plant pathogens", "setting": "plant pathogens; 10 mM (0.15% solution), pH above 7.0", "value": "inactive or at best exhibits only static activity"},
      {"measurement": "number of pathogens with cidal activity", "setting": "plant pathogens; down to 1 mM sorbate or lower, pH 4.1", "value": "two"},
      {"measurement": "concentration required to kill Botrytis cinerea", "setting": "Botrytis cinerea [1]", "value": "greater than 2%"},
      {"measurement": "concentration required to kill Fusarium nygamai", "setting": "Fusarium nygamai [2]", "value": "greater than 2%"},
      {"measurement": "concentration required to kill Alternaria solani", "setting": "Alternaria solani [3]", "value": "greater than 2%"}
    ]},
    {"smiles": "O=C([O-])c1ccccc1.[Na+]", "note": "[sodium benzoate]", "values": [
      {"measurement": "control of the plant pathogens", "setting": "plant pathogens; 5 mM (0.072% solution), pH above 7.0", "value": "ineffective"},
      {"measurement": "species tested being killed", "setting": "plant pathogens; 5 mM, pH 4.1", "value": "10 out of 10"},
      {"measurement": "species with cidal activity", "setting": "plant pathogens; 5 mM, pH 4.6", "value": "6 out of 10"}
    ]},
    {"smiles": "C/C=C/C=C/C(=O)[O-].[K+]", "note": "[Control B, potassium sorbate]", "values": [
      {"measurement": "Activity against Rhytisma acerinum", "setting": "Rhytisma acerinum; [8]", "value": 0},
      {"measurement": "Activity against Alternaria solani", "setting": "Alternaria solani [4]; [8]", "value": 0},
      {"measurement": "Activity against Colletotrichum gram.", "setting": "[5]; [8]", "value": 0},
      {"measurement": "Activity against Fusarium proliferatum", "setting": "Fusarium proliferatum; [8]", "value": 0},
      {"measurement": "Activity against Botrytis cinerea", "setting": "Botrytis cinerea [6]; [8]", "value": 0}
    ]},
    {"smiles": "O=C([O-])c1ccccc1.[Na+]", "note": "[Control C, sodium benzoate]", "values": [
      {"measurement": "Activity against Fusarium nygamai", "setting": "Fusarium nygamai [7]", "value": 0},
      {"measurement": "Activity against Sclerotinia sclerotiorum", "setting": "Sclerotinia sclerotiorum", "value": 0},
      {"measurement": "Activity against Rhytisma acerinum", "setting": "Rhytisma acerinum; [9]", "value": 0},
      {"measurement": "Activity against Alternaria solani", "setting": "Alternaria solani [4]; [9]", "value": 0},
      {"measurement": "Activity against Sclerotinia homoeocarpa", "setting": "Sclerotinia homoeocarpa", "value": 0},
      {"measurement": "Activity against Colletotrichum graminicola", "setting": "[5]; [9]", "value": 0},
      {"measurement": "Activity against Fusarium proliferatum", "setting": "Fusarium proliferatum; [9]", "value": 0},
      {"measurement": "Activity against Fusarium moniliforme", "setting": "Fusarium moniliforme", "value": 0},
      {"measurement": "Activity against Botrytis cinerea", "setting": "Botrytis cinerea [6]; [9]", "value": 0}
    ]},
    {"smiles": "C/C=C/C=C/C(=O)[O-].[K+]", "note": "[Control A, potassium sorbate]", "values": [
      {"measurement": "Activity against Rhytisma acerinum", "setting": "Rhytisma acerinum; [10]", "value": 0},
      {"measurement": "Activity against Alternaria solani", "setting": "Alternaria solani [4]; [10]", "value": 0},
      {"measurement": "Activity against Colletotrichum gram.", "setting": "[5]; [10]", "value": 0},
      {"measurement": "Activity against Fusarium proliferatum", "setting": "Fusarium proliferatum; [10]", "value": 0},
      {"measurement": "Activity against Botrytis cinerea", "setting": "Botrytis cinerea [6]; [10]", "value": 0}
    ]}
  ]
}
